In ChEMBL document CHEMBL5055685, “Discovery of the First Potent IDO1/IDO2 Dual Inhibitors: A Promising Strategy for Cancer Immunotherapy” (J Med Chem, 2021):
The source made the active and inactive calls. The calls are words filed in the database; no cut-off is given here.

How the values were obtained:
[1] = biological target: Cyclin-dependent kinase 5/CDK5 activator 1 (Homo sapiens) (UniProt Q00535+Q15078); assay: Inhibition of CDK5/p35 (unknown origin) at 1 uM; assay type: protein-complex assay
[2] = biological target: Cyclin-dependent kinase 14/Cyclin-Y (Homo sapiens) (UniProt O94921+Q8ND76); assay: Inhibition of CDK14/cyclin-Y (unknown origin) at 1 uM; assay type: protein-complex assay
[3] = biological target: RAC-gamma serine/threonine-protein kinase (Homo sapiens) (UniProt Q9Y243); assay: Inhibition of AKT3 (unknown origin) at 1 uM
[4] = biological target: Dual specificity tyrosine-phosphorylation-regulated kinase 1B (Homo sapiens) (UniProt Q9Y463); assay: Inhibition of DYRK1B (unknown origin) at 1 uM
[5] = biological target: Myotonin-protein kinase (Homo sapiens) (UniProt Q09013); assay: Inhibition of DMPK (unknown origin) at 1 uM
[6] = biological target: Testis-specific serine/threonine-protein kinase 6 (Homo sapiens) (UniProt Q9BXA6); assay: Inhibition of SSTK (unknown origin) at 1 uM
[7] = biological target: Serine/threonine-protein kinase 17A (Homo sapiens) (UniProt Q9UEE5); assay: Inhibition of DRAK1 (unknown origin) at 1 uM
[8] = biological target: Death-associated protein kinase 2 (Homo sapiens) (UniProt Q9UIK4); assay: Inhibition of DAPK2 (unknown origin) at 1 uM
[9] = biological target: T1, Indoleamine 2,3-dioxygenase 2 (Homo sapiens, UniProt Q6ZQW0); assay: Inhibition of IDO2 (unknown origin) assessed as reduction in kynurenine formation using L-tryptophan as substrate by methylene blue reagent based assay
T1 sequence (Q6ZQW0 whole entry): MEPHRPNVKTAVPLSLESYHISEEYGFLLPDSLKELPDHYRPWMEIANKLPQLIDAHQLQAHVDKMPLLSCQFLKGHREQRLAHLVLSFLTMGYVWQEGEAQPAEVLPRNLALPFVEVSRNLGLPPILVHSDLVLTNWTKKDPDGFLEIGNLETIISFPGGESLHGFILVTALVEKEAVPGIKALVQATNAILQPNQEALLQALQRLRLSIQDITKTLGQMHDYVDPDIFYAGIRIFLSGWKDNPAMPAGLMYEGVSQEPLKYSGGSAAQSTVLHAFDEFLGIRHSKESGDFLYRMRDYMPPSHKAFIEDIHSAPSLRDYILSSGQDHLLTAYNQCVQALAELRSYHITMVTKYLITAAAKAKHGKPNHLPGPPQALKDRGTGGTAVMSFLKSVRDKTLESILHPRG

[10] = biological target: Serine/threonine-protein kinase 38 (Homo sapiens) (UniProt Q15208); assay: Inhibition of STK38 (unknown origin) at 1 uM
[11] = biological target: G protein-coupled receptor kinase 6 (Homo sapiens) (UniProt P43250); assay: Inhibition of GRK6 (unknown origin) at 1 uM
[12] = Protein binding in ICR mouse plasma assessed as fraction unbound by equilibrium dialysis; assay type: ADME, cell-free
[13] = biological target: Tyrosine-protein kinase Blk (Homo sapiens) (UniProt P51451); assay: Inhibition of BLK (unknown origin) at 1 uM
[14] = biological target: Activated CDC42 kinase 1 (Homo sapiens) (UniProt Q07912); assay: Inhibition of ACK1 (unknown origin) at 1 uM
HCT-116 = assay: Antitumor immunity in BALB/c mouse xenografted with human HCT-116 cells assessed as necrotic Treg cells in spleen by propidium iodide staining based flow cytometry analysis (reference value: 1.47 %); assay type: functional
[15] = biological target: Mitogen-activated protein kinase 10 (Homo sapiens) (UniProt P53779); assay: Inhibition of JNK3 (unknown origin) at 1 uM
[16] = biological target: Tyrosine-protein kinase Tec (Homo sapiens) (UniProt P42680); assay: Inhibition of TEC (unknown origin) at 1 uM
[17] = biological target: Serine/threonine-protein kinase Nek2 (Homo sapiens) (UniProt P51955); assay: Inhibition of NEK2 (unknown origin) at 1 uM
[18] = Metabolic stability in human liver microsomes assessed as rate constant; assay type: ADME, Microsome
[19] = biological target: Tyrosine-protein kinase JAK2 (Homo sapiens) (UniProt O60674); assay: Inhibition of JAK2 (unknown origin) at 1 uM
[20] = biological target: Serine/threonine-protein kinase Nek4 (Homo sapiens) (UniProt P51957); assay: Inhibition of NEK4 (unknown origin) at 1 uM
Mus musculus [21] = assay: In vivo inhibition of IDO1/IDO2 in BALB/c mouse xenografted with human HCT-116 cells assessed as downregulation of Foxp3 mRNA expression in tumor by quantitative RT-PCR analysis; assay type: functional, organism-based
[22] = Half life in Sprague-Dawley rat at 50 mg/kg, po; assay type: ADME, organism-based; conditions: in vivo
[23] = biological target: Serine/threonine-protein kinase 38-like (Homo sapiens) (UniProt Q9Y2H1); assay: Inhibition of STK38L (unknown origin) at 1 uM
[24] = biological target: CDK6/cyclin D1 (Homo sapiens) (UniProt P24385+Q00534); assay: Inhibition of CDK6/cyclin-D1 (unknown origin) at 1 uM; assay type: protein-complex assay
[25] = biological target: Serine/threonine-protein kinase 32C (Homo sapiens) (UniProt Q86UX6); assay: Inhibition of STK32C (unknown origin) at 1 uM
[26] = biological target: Casein kinase I isoform epsilon (Homo sapiens) (UniProt P49674); assay: Inhibition of CK1E (unknown origin) at 1 uM
[27] = biological target: Cyclin-dependent kinase 2/cyclin E1 (Homo sapiens) (UniProt P24864+P24941); assay: Inhibition of CDK2/cyclin-E (unknown origin) at 1 uM; assay type: protein-complex assay
[28] = biological target: Platelet-derived growth factor receptor alpha (Homo sapiens) (UniProt P16234); assay: Inhibition of PDGFRalpha (unknown origin) at 1 uM
[29] = Half life in mouse liver microsomes; assay type: ADME, Microsome
[30] = biological target: Mitogen-activated protein kinase kinase kinase 10 (Homo sapiens) (UniProt Q02779); assay: Inhibition of MLK2 (unknown origin) at 1 uM
[31] = biological target: Mitogen-activated protein kinase kinase kinase 12 (Homo sapiens) (UniProt Q12852); assay: Inhibition of DLK (unknown origin) at 1 uM
[32] = biological target: Mitogen-activated protein kinase 14 (Homo sapiens) (UniProt Q16539); assay: Inhibition of p38alpha (unknown origin) at 1 uM
[33] = biological target: Serine/threonine-protein kinase 32B (Homo sapiens) (UniProt Q9NY57); assay: Inhibition of STK32B (unknown origin) at 1 uM
[34] = biological target: High affinity nerve growth factor receptor (Homo sapiens) (UniProt P04629); assay: Inhibition of TRKA (unknown origin) at 1 uM
Mus musculus [35] = assay: In vivo inhibition of IDO1/IDO2 in BALB/c mouse xenografted with human HCT-116 cells assessed as downregulation of Foxp3 expression in tumor by immunohistochemical assay; assay type: functional, organism-based
[36] = biological target: Dual specificity protein kinase CLK2 (Homo sapiens) (UniProt P49760); assay: Inhibition of CLK2 (unknown origin) at 1 uM
[37] = biological target: Lymphokine-activated killer T-cell-originated protein kinase (Homo sapiens) (UniProt Q96KB5); assay: Inhibition of PBK (unknown origin) at 1 uM

Chain of Serine/threonine-protein kinase 38-like (Homo sapiens) (Q9Y2H1 2-464 limits assumed): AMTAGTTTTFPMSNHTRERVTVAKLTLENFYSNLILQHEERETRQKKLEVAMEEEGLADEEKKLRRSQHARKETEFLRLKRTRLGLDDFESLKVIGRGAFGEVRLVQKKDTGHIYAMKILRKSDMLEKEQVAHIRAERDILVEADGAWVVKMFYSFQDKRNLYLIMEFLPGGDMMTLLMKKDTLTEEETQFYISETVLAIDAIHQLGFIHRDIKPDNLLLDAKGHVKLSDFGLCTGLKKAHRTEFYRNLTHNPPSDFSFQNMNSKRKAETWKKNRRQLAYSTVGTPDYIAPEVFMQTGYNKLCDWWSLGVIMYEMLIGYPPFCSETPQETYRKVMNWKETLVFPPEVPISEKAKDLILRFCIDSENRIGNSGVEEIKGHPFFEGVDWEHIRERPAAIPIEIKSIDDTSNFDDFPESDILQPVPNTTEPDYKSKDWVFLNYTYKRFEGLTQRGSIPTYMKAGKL
Chain of RAC-gamma serine/threonine-protein kinase (Homo sapiens) (Q9Y243 whole entry): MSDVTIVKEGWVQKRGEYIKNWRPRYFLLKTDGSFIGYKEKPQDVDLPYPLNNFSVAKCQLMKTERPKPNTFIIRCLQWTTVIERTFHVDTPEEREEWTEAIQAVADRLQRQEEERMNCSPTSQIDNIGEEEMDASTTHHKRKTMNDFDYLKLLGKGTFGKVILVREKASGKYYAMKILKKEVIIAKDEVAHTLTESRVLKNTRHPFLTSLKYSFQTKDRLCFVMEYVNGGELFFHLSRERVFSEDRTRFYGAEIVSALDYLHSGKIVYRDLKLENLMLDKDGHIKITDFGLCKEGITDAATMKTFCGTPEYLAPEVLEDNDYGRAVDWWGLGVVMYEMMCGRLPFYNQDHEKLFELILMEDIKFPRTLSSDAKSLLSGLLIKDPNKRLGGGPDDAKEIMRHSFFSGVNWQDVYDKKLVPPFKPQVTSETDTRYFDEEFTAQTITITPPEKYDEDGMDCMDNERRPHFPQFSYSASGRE
Chain of Casein kinase I isoform epsilon (Homo sapiens) (P49674 whole entry, looked up, canonical isoform): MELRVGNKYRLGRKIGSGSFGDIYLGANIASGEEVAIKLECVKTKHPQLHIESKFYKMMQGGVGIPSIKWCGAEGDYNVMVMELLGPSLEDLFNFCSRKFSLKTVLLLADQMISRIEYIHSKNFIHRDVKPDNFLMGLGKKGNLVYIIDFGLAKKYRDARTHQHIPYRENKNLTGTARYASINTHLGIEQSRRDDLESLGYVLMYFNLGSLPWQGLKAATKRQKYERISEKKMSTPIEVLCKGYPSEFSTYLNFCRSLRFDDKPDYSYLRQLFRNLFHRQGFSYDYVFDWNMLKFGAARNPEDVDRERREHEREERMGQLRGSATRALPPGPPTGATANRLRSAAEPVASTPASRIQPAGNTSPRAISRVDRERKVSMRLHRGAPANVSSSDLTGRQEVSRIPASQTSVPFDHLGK
Chain of Platelet-derived growth factor receptor alpha (Homo sapiens) (P16234 whole entry): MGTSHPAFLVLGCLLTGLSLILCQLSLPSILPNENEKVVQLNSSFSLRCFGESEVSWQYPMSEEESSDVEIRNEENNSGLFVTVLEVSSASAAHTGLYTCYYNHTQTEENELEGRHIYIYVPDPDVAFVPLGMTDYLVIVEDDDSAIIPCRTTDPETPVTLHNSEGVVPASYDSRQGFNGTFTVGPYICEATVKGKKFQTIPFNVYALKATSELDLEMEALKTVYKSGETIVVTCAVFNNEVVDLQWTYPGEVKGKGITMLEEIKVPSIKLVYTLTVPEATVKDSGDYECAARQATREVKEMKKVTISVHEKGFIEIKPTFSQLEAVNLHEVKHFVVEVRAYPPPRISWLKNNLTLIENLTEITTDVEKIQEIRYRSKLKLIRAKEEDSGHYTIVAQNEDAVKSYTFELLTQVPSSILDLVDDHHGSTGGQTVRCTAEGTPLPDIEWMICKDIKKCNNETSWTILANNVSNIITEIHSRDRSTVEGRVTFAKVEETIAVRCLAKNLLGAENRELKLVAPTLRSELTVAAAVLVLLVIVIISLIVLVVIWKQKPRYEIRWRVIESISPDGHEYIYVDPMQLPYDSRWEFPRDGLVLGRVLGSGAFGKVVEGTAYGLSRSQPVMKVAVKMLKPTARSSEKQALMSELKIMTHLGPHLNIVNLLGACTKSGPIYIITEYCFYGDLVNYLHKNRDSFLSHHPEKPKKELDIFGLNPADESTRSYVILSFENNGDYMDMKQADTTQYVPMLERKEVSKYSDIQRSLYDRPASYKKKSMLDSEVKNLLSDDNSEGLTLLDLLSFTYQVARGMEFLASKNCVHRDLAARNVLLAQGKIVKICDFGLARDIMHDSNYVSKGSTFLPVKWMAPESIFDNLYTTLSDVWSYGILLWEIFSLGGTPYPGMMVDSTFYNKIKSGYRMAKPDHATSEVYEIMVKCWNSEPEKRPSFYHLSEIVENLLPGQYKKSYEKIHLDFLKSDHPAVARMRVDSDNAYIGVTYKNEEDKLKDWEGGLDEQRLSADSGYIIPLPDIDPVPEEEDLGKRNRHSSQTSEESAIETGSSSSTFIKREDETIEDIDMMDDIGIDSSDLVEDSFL
Chain of Serine/threonine-protein kinase 32B (Homo sapiens) (Q9NY57 whole entry): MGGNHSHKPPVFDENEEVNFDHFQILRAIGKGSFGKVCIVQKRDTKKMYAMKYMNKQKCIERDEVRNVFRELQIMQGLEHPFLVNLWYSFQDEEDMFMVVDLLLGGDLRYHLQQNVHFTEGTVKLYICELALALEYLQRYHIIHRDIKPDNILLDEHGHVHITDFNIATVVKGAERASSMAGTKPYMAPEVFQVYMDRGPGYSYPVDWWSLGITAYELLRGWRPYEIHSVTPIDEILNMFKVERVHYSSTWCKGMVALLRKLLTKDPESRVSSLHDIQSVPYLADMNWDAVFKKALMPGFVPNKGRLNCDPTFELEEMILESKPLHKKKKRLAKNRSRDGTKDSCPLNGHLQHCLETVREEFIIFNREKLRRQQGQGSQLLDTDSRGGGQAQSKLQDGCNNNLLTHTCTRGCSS
Chain of Myotonin-protein kinase (Homo sapiens) (Q09013 whole entry): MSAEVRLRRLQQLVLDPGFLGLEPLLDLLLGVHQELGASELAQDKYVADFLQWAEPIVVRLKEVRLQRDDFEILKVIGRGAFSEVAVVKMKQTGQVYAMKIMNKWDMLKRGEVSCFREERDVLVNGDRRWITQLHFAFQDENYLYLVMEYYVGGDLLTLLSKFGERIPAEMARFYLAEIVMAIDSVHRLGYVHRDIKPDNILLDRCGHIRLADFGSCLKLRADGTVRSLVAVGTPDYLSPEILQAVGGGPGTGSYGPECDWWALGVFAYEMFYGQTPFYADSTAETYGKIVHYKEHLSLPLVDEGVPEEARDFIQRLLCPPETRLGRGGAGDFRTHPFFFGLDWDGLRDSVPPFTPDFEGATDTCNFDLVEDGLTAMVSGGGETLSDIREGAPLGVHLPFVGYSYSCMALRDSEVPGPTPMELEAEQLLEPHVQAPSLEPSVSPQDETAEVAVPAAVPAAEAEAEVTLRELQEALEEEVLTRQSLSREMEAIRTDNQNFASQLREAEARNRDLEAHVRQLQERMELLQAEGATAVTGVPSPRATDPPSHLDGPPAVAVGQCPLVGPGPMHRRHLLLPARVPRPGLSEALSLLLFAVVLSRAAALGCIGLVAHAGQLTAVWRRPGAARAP
Chain of Mitogen-activated protein kinase 10 (Homo sapiens) (P53779 whole entry): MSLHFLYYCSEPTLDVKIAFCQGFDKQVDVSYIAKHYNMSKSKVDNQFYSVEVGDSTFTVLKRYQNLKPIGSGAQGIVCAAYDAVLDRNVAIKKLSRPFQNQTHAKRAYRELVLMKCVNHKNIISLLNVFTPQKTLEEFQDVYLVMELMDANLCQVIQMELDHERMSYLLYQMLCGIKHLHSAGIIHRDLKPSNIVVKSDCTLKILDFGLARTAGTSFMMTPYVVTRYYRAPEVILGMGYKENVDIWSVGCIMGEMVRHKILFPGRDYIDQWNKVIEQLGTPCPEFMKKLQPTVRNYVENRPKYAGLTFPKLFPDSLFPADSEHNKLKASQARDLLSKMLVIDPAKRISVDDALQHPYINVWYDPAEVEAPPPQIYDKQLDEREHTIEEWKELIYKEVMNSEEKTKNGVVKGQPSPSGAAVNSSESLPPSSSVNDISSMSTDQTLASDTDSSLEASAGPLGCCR
Chain of Mitogen-activated protein kinase kinase kinase 10 (Homo sapiens) (Q02779 whole entry, looked up): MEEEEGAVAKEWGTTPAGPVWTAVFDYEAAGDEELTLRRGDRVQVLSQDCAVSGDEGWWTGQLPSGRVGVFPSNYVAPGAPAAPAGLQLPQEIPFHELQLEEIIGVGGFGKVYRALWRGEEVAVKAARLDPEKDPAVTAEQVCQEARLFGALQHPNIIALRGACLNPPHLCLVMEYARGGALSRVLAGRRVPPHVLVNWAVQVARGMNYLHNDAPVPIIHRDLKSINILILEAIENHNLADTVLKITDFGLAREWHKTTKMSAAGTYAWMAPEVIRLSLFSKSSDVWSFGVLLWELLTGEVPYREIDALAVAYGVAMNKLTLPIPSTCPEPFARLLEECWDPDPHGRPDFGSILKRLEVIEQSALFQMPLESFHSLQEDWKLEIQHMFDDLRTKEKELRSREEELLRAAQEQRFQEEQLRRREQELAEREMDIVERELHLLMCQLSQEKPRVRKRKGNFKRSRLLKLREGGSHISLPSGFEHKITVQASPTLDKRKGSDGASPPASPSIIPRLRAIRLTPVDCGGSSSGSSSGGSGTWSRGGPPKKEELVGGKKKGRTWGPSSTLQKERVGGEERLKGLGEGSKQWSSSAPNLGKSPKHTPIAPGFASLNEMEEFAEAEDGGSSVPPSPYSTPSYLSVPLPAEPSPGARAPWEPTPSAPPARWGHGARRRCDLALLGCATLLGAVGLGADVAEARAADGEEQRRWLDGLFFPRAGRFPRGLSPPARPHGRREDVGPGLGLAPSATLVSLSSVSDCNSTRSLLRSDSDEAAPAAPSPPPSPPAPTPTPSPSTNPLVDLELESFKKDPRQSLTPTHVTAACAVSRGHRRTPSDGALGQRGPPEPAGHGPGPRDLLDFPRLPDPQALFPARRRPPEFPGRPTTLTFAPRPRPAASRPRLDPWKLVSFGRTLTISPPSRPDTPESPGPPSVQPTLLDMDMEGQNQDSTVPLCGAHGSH

OCCOCc1cn(CCNc2nonc2/C(=N/O)Nc2ccc(F)c(Br)c2)nn1
inhibition [1]: inactive | inhibition [2]: inactive | inhibition [3]: inactive | inhibition [4]: inactive | inhibition [5]: inactive | inhibition [6]: inactive | inhibition [7]: inactive | inhibition [8]: inactive | IC50 [9]: 144 nM | inhibition [10]: inactive | inhibition [11]: inactive | fraction unbound [12]: 0.0968 | inhibition [13]: inactive | inhibition [14]: inactive | Activity (HCT-116): 0.78% | inhibition [15]: inactive | inhibition [16]: inactive | inhibition [17]: inactive | k el [18]: 0.00025 s⁻¹ | inhibition [19]: inactive | inhibition [20]: inactive | inhibition (Mus musculus [21]): Active | half-life [22]: 1.9 h | inhibition [23]: inactive | inhibition [24]: inactive | inhibition [25]: inactive | inhibition [26]: inactive | inhibition [27]: inactive | inhibition [28]: inactive | half-life [29]: 0.72 h | inhibition [30]: inactive | inhibition [31]: inactive | inhibition [32]: inactive | inhibition [33]: inactive | inhibition [34]: inactive | inhibition (Mus musculus [35]): Active | inhibition [36]: inactive | inhibition [37]: inactive
